Values of other authors in US20190160050A1, “SMALL MOLECULE INHIBITION FOR PREVENTING OR TREATING FIBROTIC DISEASES” (THE REGENTS OF THE UNIVERSITY OF CALIFORNIA, priority 2016, published 2019).

Experiments:
[1] = tested on: JNK; conditions: read-out: IC50 as competitive inhibitor of JNK
[2] = tested on: Akt/PKB; conditions: read-out: IC50 (Akt/PKB inhibitor)
[3] = biological target: vascular endothelial growth factor receptor 2 (Homo sapiens, UniProt P35968)
[4] = biological target: c-fms (Homo sapiens, UniProt P07333); conditions: read-out: IC50 for c-fms tyrosine kinase
c-fms, sequence (P07333 20-972): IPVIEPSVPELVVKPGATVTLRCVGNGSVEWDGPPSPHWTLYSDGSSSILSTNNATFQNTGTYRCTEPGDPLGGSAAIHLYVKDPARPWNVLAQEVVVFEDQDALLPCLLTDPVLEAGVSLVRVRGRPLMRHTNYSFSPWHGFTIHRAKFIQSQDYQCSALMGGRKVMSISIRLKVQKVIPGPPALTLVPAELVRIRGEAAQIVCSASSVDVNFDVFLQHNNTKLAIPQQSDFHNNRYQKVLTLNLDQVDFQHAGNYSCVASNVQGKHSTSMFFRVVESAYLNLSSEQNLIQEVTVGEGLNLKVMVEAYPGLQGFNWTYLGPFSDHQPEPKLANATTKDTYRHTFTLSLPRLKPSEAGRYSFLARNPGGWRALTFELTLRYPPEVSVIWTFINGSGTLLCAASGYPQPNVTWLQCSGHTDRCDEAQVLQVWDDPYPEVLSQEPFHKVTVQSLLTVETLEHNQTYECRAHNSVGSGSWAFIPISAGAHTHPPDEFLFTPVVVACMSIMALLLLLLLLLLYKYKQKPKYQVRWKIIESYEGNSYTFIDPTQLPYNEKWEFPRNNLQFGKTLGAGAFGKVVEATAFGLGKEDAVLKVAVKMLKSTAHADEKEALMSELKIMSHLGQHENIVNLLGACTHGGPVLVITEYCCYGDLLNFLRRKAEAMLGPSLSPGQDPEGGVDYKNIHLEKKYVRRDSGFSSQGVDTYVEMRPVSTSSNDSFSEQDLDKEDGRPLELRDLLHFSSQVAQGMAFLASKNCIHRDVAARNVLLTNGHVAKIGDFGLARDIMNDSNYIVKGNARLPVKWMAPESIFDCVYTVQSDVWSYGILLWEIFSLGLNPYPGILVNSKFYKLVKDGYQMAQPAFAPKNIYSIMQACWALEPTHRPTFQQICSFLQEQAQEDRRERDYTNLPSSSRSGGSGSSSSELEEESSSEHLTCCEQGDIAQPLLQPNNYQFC

[5] = biological target: Lck (Homo sapiens, UniProt P06239)
Lck, sequence (P06239 whole entry, species assumed): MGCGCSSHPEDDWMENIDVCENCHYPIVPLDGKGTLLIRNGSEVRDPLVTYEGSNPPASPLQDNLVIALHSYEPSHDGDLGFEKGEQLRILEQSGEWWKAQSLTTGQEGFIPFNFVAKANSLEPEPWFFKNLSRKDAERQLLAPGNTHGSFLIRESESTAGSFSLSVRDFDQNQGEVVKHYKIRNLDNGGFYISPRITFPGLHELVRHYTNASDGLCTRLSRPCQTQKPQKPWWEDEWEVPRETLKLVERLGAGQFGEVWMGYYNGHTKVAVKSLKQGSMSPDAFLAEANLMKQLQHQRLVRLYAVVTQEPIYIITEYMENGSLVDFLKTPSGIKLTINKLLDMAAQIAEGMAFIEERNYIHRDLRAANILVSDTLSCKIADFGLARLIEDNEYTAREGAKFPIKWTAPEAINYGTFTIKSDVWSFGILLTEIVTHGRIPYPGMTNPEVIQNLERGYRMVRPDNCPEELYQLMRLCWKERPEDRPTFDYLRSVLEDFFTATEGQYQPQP

[6] = biological target: Src (Homo sapiens, UniProt P12931)
Src, sequence (P12931 whole entry, species assumed): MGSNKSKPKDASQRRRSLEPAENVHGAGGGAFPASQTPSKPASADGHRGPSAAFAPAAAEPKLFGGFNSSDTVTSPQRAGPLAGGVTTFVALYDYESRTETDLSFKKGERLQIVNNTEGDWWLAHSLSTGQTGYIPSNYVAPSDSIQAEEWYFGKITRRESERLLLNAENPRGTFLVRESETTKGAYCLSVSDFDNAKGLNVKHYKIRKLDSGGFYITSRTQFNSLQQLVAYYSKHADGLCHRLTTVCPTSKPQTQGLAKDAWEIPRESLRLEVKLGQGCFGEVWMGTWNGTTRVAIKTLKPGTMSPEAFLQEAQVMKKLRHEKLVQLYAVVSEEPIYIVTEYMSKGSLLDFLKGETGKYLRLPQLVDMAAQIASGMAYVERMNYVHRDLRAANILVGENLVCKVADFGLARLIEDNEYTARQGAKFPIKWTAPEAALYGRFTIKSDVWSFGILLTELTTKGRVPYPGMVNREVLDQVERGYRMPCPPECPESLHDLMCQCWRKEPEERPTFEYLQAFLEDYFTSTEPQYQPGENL

vascular endothelial growth factor receptor 2, sequence (P35968 20-1356, species assumed): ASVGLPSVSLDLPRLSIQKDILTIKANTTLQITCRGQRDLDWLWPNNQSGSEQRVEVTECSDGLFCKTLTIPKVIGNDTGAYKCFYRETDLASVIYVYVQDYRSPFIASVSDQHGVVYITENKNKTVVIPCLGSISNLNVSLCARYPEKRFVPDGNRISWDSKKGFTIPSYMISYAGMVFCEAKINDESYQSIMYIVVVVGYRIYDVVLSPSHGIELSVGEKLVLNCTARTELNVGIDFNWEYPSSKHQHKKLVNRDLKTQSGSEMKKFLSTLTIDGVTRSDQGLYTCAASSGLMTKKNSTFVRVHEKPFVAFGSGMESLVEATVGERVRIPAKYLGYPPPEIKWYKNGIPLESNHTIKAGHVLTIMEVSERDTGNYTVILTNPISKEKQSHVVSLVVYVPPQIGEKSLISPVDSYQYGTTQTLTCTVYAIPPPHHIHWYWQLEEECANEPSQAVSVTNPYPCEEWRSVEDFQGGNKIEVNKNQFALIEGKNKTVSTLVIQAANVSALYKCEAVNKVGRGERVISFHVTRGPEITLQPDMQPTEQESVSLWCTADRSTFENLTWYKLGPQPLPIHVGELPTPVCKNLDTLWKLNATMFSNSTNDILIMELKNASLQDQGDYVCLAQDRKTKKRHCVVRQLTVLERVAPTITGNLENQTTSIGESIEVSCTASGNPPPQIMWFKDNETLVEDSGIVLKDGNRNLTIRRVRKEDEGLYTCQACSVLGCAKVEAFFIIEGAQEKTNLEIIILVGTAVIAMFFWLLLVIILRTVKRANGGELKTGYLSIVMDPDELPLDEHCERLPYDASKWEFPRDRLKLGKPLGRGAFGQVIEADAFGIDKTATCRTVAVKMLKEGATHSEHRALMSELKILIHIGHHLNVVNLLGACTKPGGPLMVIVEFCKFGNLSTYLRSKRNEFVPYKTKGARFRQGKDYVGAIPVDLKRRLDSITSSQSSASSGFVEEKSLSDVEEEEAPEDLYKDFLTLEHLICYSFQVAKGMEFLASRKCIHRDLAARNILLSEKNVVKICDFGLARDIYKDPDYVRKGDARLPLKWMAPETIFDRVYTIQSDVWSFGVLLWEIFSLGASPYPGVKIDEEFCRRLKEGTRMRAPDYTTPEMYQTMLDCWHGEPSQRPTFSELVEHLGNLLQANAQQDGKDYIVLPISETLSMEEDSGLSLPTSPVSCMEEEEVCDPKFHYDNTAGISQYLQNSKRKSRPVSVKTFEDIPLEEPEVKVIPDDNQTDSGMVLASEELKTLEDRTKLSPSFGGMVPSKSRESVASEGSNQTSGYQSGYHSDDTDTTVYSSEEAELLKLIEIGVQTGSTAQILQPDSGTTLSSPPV

Question: With `O=c1[nH]nc(Sc2ncc([N+](=O)[O-])s2)n1-c1ccc2c(c1)OCCO2` [BI 78D3, 4-(2,3-dihydro-1,4-benzodioxin-6-yl)-2,4-dihydro-5-[(5-nitro-2-thiazolyl)thio]-3H-1,2,4-triazol-3-one] as the molecule, how does the IC50 [1] read?
Answer: 280 nM

Question: Which IC50 [2] does the source give for `NC(=S)N/N=C/c1coc2ccccc2c1=O.[Cl][Cu][Cl]` [FPA 124] here?
Answer: 100 nM

Question: With `COc1cc2ncnc(Nc3ccc(Oc4ccccc4)cc3)c2cc1OC` [Src Inhibitor-1, 4-(4′-Phenoxyanilino)-6,7-dimethoxyquinazoline, 6,7-Dimethoxy-N-(4-phenoxyphenyl)-4-quinazolinamine] as the molecule, how does the IC50 [3] read?
Answer: 320 nM

Question: And the IC50 [4]?
Answer: 30000 nM

Question: What about the IC50 [5] of the same molecule?
Answer: 88 nM

Question: What about the IC50 [6] of the same molecule?
Answer: 44 nM
